The target of one assay is T1, human Tie2 (Homo sapiens, UniProt Q02763).
T1 construct: human Tie2 corresponding to amino acids 776-1124 of the intracellular domain was generated by PCR; made in house; host or cells: baculovirus expression system (vector pFastBacGT)
Put plainly: Tie2 kinase inhibition: phosphorylation of GST-PLC (SH2-SH3 fragments) by GST-Tie2, 33P-ATP flashplate. It is filed as biochemical. As to the method:
The coding sequence of human Tie2 corresponding to amino acids 776-1124 of the intracellular domain was generated by PCR using the cDNA isolated from human placenta as model. This sequence was introduced into a baculovirus expression vector pFastBacGT in the form of a GST fusion protein.
The inhibitory effect of the molecules is determined in an assay for phosphorylation of PLC by Tie2 in the presence of GST-Tie2 purified to approximately 80% homogeneity. The substrate is made up of the SH2-SH3 fragments of PLC, the latter being expressed in the form of a GST fusion protein.
The kinase activity of Tie2 is measured in a 20 mM MOPS buffer, pH 7.2, containing 10 mM MgCl2, 10 mM MnCl2, 1 mM DTT and 10 mM of glycerophosphate. A reaction mixture made up of 70 μl of kinase buffer containing 100 ng of GST-Tie2 enzyme per well is placed in a flashplate 96-well plate kept on ice. 10 μl of the molecule to be tested, diluted in DMSO, at a concentration of at most 10% are then added. For a given concentration, each measurement is carried out in quadruplicate. The reaction is initiated by adding 20 μl of solution containing 2 μg of GST-PLC, 2 μM of cold ATP and 1 μCi of ^33P[ATP]. After incubation for 1 hour at 37° C., the reaction is stopped by adding 1 volume (100 μl) of 200 mM EDTA. After removal of the incubation buffer, the wells are washed three times with 300 μl of PBS. The radioactivity is measured on a Wallac MicroBeta 1450.
The inhibition of the Tie2 activity is calculated and expressed as percentage inhibition with respect to the control activity determined in the absence of compound.

The next assay deals with T2, human KDR enzyme (Homo sapiens, UniProt P35968).
T2 construct: The cytoplasmic domain of the human KDR enzyme was cloned in GST fusion form; GST; made in house; host or cells: SF21 insect cells (baculovirus, pFastBac)
As to the kind of experiment: KDR kinase inhibition: phosphorylation of PLCγ SH2-SH3 substrate by KDR enzyme, 33P-ATP scintillation plate. It is filed as biochemical. The procedure:
The inhibitory effect of the compounds is determined in an assay for phosphorylation of substrate by the KDR enzyme in vitro using a scintillation technique (96-well plate, NEN).
The cytoplasmic domain of the human KDR enzyme was cloned in GST fusion form into the baculovirus expression vector pFastBac. The protein was expressed in SF21 cells and purified to approximately 60% homogeneity. The KDR kinase activity is measured in 20 mM MOPS, 10 mM MgCl2, 10 mM MnCl2, 1 mM DTT, 2.5 mM EGTA, 10 mM b-glycerophosphate, pH=7.2, in the presence of 10 mM MgCl2, 100 μM Na3VO4 and 1 mM NaF. 10 μl of the compound are added to 70 μl of kinase buffer containing 100 ng of KDR enzyme at 4° C. The reaction is initiated by adding 20 μl of solution containing 2 μg of substrate (SH2-SH3 fragment of PLCγ expressed in the form of an GST fusion protein), 2 μCi γ ^33P[ATP] and 2 μM cold ATP. After incubation for 1 hour at 37° C., the reaction is stopped by adding 1 volume (100 μl) of 200 mM EDTA. The incubation buffer is removed and the wells are washed three times with 300 μl of PBS. The radioactivity is measured in each well using a Top Count NXT (Packard) radioactivity counter.
The background noise is determined by measuring the radioactivity in four different wells containing the radioactive ATP and the substrate alone.
A total activity control is measured in four different wells containing all the reagents (γ^33P-[ATP], KDR and PLC-γ substrate) but in the absence of compound.
The inhibition of the KDR activity with the compound of the invention is expressed as percentage inhibition of the control activity determined in the absence of compound.
The compound SU5614 (Calbiochem) (1 μM) is included in each plate as inhibition control.

Where [1] appears, read: Assay 1, read-out: Tie2 % Inhib at 10 μM (FRX) Assay 1.
The mark [2] stands for this setting: Assay 2, read-out: Tie2 % Inhib at 10 μM (FRX) Assay 2.
The mark [3] stands for this setting: Assay 1, read-out: KDR % Inhib at 10 μM Assay 1.
Where [4] appears, read: Assay 2, read-out: KDR % Inhib at 10 μM Assay 2.

Structures are written as SMILES. Where two headings read alike, the source gives them in different places.

T1 sequence (Q02763 776-1124): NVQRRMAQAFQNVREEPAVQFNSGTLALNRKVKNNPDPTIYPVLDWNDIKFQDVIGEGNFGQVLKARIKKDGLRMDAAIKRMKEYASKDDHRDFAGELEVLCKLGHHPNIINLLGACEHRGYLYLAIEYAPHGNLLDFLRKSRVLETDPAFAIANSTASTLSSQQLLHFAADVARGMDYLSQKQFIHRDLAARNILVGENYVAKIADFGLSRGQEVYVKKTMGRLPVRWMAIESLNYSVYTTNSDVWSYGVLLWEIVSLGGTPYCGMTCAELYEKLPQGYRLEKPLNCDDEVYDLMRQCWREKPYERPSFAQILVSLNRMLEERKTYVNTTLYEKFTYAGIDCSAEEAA
T2 sequence (P35968 786-1356 limits assumed): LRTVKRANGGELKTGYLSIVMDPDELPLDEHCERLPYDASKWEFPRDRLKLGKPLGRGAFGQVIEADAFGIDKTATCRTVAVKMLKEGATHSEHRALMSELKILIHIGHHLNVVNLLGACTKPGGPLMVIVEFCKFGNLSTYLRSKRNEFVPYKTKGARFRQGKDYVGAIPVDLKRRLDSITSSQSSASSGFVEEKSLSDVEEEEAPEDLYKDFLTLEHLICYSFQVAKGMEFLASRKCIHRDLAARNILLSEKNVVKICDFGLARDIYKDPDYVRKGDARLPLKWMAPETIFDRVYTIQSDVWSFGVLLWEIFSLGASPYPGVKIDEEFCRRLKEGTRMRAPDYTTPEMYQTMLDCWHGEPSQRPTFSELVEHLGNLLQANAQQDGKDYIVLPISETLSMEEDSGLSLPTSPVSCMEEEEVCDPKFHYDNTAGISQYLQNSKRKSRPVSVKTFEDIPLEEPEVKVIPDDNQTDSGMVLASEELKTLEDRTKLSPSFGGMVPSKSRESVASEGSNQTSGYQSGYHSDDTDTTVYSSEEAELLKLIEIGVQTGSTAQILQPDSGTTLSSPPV

In the case of `Cc1cc2nc(-c3[nH]nc4c3CCN(Cc3cccs3)C4)[nH]c2cc1C` [Chemistry 13], the inhibition at 10 µM at human Tie2 (read-out: Tie2 % Inhib. 10 μM) was found to be 41.5%; at human KDR enzyme (read-out: KDR % Inhib. 10 μM), 84.5%.
For `Cc1cc2nc(-c3[nH]nc4c3CCN(CC(C)C)C4)[nH]c2cc1C` [Chemistry 6], the inhibition at 10 µM came to 41.2% at human Tie2 (read-out: Tie2 % Inhib. 10 μM) and 2.1% at human KDR enzyme (read-out: KDR % Inhib. 10 μM).
Taken in the same sequence, the figures for `Cc1cc2nc(-c3[nH]nc4c3CCN(CC3CC3)C4)[nH]c2cc1C` [Chemistry 21] were 33% and 1.85%.
For `COc1ccccc1S(=O)(=O)N1CCc2c(-c3nc4cc(C)c(C)cc4[nH]3)n[nH]c2C1` [Chemistry 39], the inhibition at 10 µM on human Tie2 (read-out: Tie2 % Inhib. 10 μM) amounted to 97.9%; on human KDR enzyme (read-out: KDR % Inhib. 10 μM), 30.9%.
As to `O=C(c1cccnc1)N1CCc2c(n[nH]c2-c2nc3ccccc3[nH]2)C1` [Chemistry 69], the inhibition at 10 µM was 59.3% on human Tie2 (read-out: Tie2 % Inhib. 10 μM) and 18.6% at human KDR enzyme (read-out: KDR % Inhib. 10 μM).
On to `Cc1cc2nc(-c3[nH]nc4c3CCN(C(=O)c3ccccc3OCc3ccccc3)C4)[nH]c2cc1C` [Example P-31378-112-9], for which the inhibition at 10 µM at human Tie2 (setting [1]) is 82.6%; on human Tie2 (setting [2]), 85.9%; on human KDR enzyme (setting [3]), 53.2%; on human KDR enzyme (setting [4]) it was 45.1%.
For `Cc1cc2nc(-c3[nH]nc4c3CCN(C(=O)c3ccccc3Oc3ccccc3)C4)[nH]c2cc1C` [Example P-31378-112-5] the same measures were 87.1%, 86.4%, 94.7% and 95.4%.
Consider `Cc1cc2nc(-c3[nH]nc4c3CCN(C(=O)c3ccccc3Cc3ccccc3)C4)[nH]c2cc1C` [Example P-31378-112-6], for which the inhibition at 10 µM at human Tie2 (setting [1]) came to 92.7%; on human Tie2 (setting [2]), 93.8%; on human KDR enzyme (setting [3]) it was 71.4%; on human KDR enzyme (setting [4]) it was 68%.
Taken in the same sequence, the figures for `Cc1cc2c(cc1C)NC(c1[nH]nc3c1CCN(C(=O)c1ccc(C)c([N+](=O)[O-])c1)C3)N2` [Example P-31378-112-14] were 69.7%, 73.8%, 19.5% and 13%.
Regarding `Cc1cc2nc(-c3[nH]nc4c3CCN(C(=O)c3cccc(Cl)c3)C4)[nH]c2cc1C` [Chemistry 47], the inhibition at 10 µM stood at 87.7% on human Tie2 (read-out: Tie2 % Inhib. 10 μM) and 78.5% at human KDR enzyme (read-out: KDR % Inhib. 10 μM).
Turning to `CCCS(=O)(=O)N1CCc2c(n[nH]c2-c2nc3cc(C)c(C)cc3[nH]2)C1` [Chemistry 29], the results for the inhibition at 10 µM at human Tie2 (read-out: Tie2 % Inhib. 10 μM) and at human KDR enzyme (read-out: KDR % Inhib. 10 μM) were 47.5% and 13.3%, respectively.
For `C=CCC(=O)N1CCc2c(n[nH]c2-c2nc3cc(C)c(C)cc3[nH]2)C1` [Chemistry 51], the inhibition at 10 µM on human Tie2 (read-out: Tie2 % Inhib. 10 μM) amounted to 72.9%; at human KDR enzyme (read-out: KDR % Inhib. 10 μM), 38.7%.
For `Cc1cc2nc(-c3[nH]nc4c3CCN(C(=O)Nc3ccccc3Cl)C4)[nH]c2cc1C` [Chemistry 61], the inhibition at 10 µM was 3.75% at human Tie2 (read-out: Tie2 % Inhib. 10 μM) and 12.7% at human KDR enzyme (read-out: KDR % Inhib. 10 μM).
For `Clc1cccc(CN2CCc3c(n[nH]c3-c3nc4ccccc4[nH]3)C2)c1` [Chemistry 70] the same measures were 65.5% and 92.1%.
Take `Cc1cc2nc(-c3[nH]nc4c3CCN(C(=O)c3ccccc3Cl)C4)[nH]c2cc1C` [Chemistry 46]: the figures for the inhibition at 10 µM on human Tie2 (read-out: Tie2 % Inhib. 10 μM) and at human KDR enzyme (read-out: KDR % Inhib. 10 μM) were 96.7% and 73%, respectively.
As to `CC(=O)N1CCc2c(n[nH]c2-c2nc3cc(C)c(C)cc3[nH]2)C1` [Chemistry 44], the inhibition at 10 µM was 90.8% on human Tie2 (read-out: Tie2 % Inhib. 10 μM) and 41.1% on human KDR enzyme (read-out: KDR % Inhib. 10 μM).
`Cc1cc2nc(-c3[nH]nc4c3CCN(C(=O)CCc3ccccc3)C4)[nH]c2cc1C` [Chemistry 50]: the inhibition at 10 µM is 82.4% on human Tie2 (read-out: Tie2 % Inhib. 10 μM) and 74.8% at human KDR enzyme (read-out: KDR % Inhib. 10 μM).

These data come from patent publication US7435820B2, “Substituted tetrahydro-1H-pyrazolo [3,4-c]pyridines compositions comprising them, and use” (Aventis Pharma S.A., priority 2003, dated 2008).
